Columns and labels:
Type in all cases: in vivo
[1] = tested on: Setaria viridis (SETVI); assay: Herbicidal early post-emergence action (Table A4); settings: 1900 g/ha; scored visually 9 to 12 days after treatment; 100% = plants have died, 0% = like control plants
Description: (§1) Seeds of monocotyledonous and dicotyledonous weed plants were placed in 96-well microtiter plates in quartz sand and grown in a climatized chamber under controlled growth conditions. 5 to 7 days after sowing, the test plants were treated at the cotyledon stage. The compounds according to the invention, formulated in the form of emulsion concentrates (EC), were applied with a water application rate of the equivalent of 2200 liters per hectare. After the test plants had been left to stand in the climatized chamber for 9 to 12 days under optimum growth conditions, the effect of the preparations was scored visually in comparison to untreated controls. For example, 100% activity=the plants have died, 0% activity=like control plants. Tables A1 to A8 below show the effects of selected compounds of the general formula (I) according to Table 1 on various harmful plants and an application rate corresponding to 1900 g/ha, which were obtained by the experimental procedure mentioned above.

[2] = tested on: Stellaria media (STEME); assay: Herbicidal early post-emergence action (Table A7); settings: 1900 g/ha; scored visually 9 to 12 days after treatment; 100% = plants have died, 0% = like control plants
Description: as §1

[3] = tested on: harmful plants AGSTE, DIPTE, LOLPE, MATCH, POAAN, SETVI, STEME and VERPE; assay: Herbicidal early post-emergence action, summary of Tables A1-A8; settings: application rate of 1900 g of active ingredient per hectare; summary in words
In short: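 Weeds in quartz sand in microtiter plates were treated at cotyledon stage, 5–7 days after sowing, with EC-formulated compounds at 1900 g/ha in 2200 L/ha water. Activity scored visually against untreated controls after 9–12 days in a climate chamber (100% = dead, 0% = like control).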

[4] = tested on: Agrostis tenuis (AGSTE); assay: Herbicidal early post-emergence action (Table A1); settings: 1900 g/ha; scored visually 9 to 12 days after treatment; 100% = plants have died, 0% = like control plants
In short: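 Weeds sown in quartz sand in microtiter plates and treated at cotyledon stage, 5-7 days after sowing, with EC-formulated compound at 1900 g/ha in 2200 L/ha water. Damage scored visually 9-12 days later against untreated controls (0% = as control, 100% = dead).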

[5] = tested on: Lolium perenne (LOLPE); assay: Herbicidal early post-emergence action (Table A2); settings: 1900 g/ha; scored visually 9 to 12 days after treatment; 100% = plants have died, 0% = like control plants
Description: as §1

[6] = tested on: Poa annua (POAAN); assay: Herbicidal early post-emergence action (Table A3); settings: 1900 g/ha; scored visually 9 to 12 days after treatment; 100% = plants have died, 0% = like control plants
Description: as §1

[7] = tested on: Veronica persica (VERPE); assay: Herbicidal early post-emergence action (Table A8); settings: 1900 g/ha; scored visually 9 to 12 days after treatment; 100% = plants have died, 0% = like control plants
Description: as §1

[8] = tested on: Matricaria chamonilla (MATCH); assay: Herbicidal early post-emergence action (Table A6); settings: 1900 g/ha; scored visually 9 to 12 days after treatment; 100% = plants have died, 0% = like control plants
Description: as §1

SMILES	Early post-emergence effect against Setaria viridis (SETVI) [1] [%]	Early post-emergence effect against Stellaria media (STEME) [2] [%]	herbicidal activity against the harmful plants of Tables A1-A8 in early post-emergence treatment [3]	Early post-emergence effect against Agrostis tenuis (AGSTE) [4] [%]	Early post-emergence effect against Lolium perenne (LOLPE) [5] [%]	Early post-emergence effect against Poa annua (POAAN) [6] [%]	Early post-emergence effect against Veronica persica (VERPE) [7] [%]	Early post-emergence effect against Matricaria chamonilla (MATCH) [8] [%]
FC(F)(F)c1cccc(-c2ccccc2Oc2ccc(Cl)cn2)n1 [Example 1-49]	100	80	very good herbicidal activity	–	–	–	–	–
Cc1cc(C)c(-c2cc(C(F)F)no2)c(Oc2ccc(Cl)cn2)c1 [Example 1-78]	–	–	very good herbicidal activity	100	80	100	–	–
Cn1nc(-c2c(F)cccc2Oc2ncccc2F)cc1C(F)F [Example 1-84]	–	–	very good herbicidal activity	–	–	–	80	–
FC(F)(F)c1cc(-c2ccccc2Oc2ccc(Cl)cn2)on1 [Example 1-113]	–	–	very good herbicidal activity	100	–	100	–	80
Cc1cc(F)c(-c2cc(C(F)F)no2)c(Oc2ccc(Cl)cn2)c1 [Example 1-88]	80	–	very good herbicidal activity	100	–	100	–	–
